{"source": "patent US5972894A", "about": "“Peptides having potassium channel opener activity” (Cytran, Inc., priority 1997, dated 1999)", "system": "Intestinal Smooth Muscle", "assay": "Calcium-induced contraction of intestinal smooth muscle specimens", "type": "cell-based, guinea pigs", "conditions": "for Contraction Amplitude, calcium-induced (% of control level): 20 mM CaCl2", "method": "GE and VT served as test substances in this experiment. GE was tested at concentrations of 10^-6 g/ml and 10^-5 g/ml (4.9×10^-6 M and 4.9×10^-5 M, respectively), and VT was tested at concentrations 10^-6 g/ml and 10^-5 g/ml (4.58×10^-6 and 4.58×10^-5 M, respectively).\nSmall intestinal SMS samples from ten guinea pigs were surgically isolated and prepared as follows. First, the SMS samples were preincubated for 40 minutes in an organ bath holding a standard Krebs-Henseleit physiological salt solution containing calcium chloride (CaCl2) at concentration of 2.5 mM. Next, each SMS was washed with a calcium-free solution of Krebs-Henseleit and incubated in a calcium-free Krebs-Henseleit solution for 40 minutes. Contractile activity was pre-induced in each SMS by first perfusing the organ bath containing the sample for 15 minutes with a Krebs-Henseleit solution containing 30 mM KCl and then perfusing the bath for an additional 15 minutes with a Krebs-Henseleit solution containing 20 mM CaCl2. Finally, each SMS sample was washed with a calcium-free Krebs-Henseleit solution for 40 minutes. In these experiments, measurements of the contractile response of the SMS following the addition of a Krebs-Henseleit solution containing 20 mM calcium served as the control (baseline). Changes in contraction amplitudes were recorded by using the method set forth in Step 1 of Example 2, above.\nAfter washing the SMS as outlined in Step 1, the organ bath with the SMS sample was perfused for 15 minutes with the solution of a test or reference substance. In this instance, GE and VT served as the test substances, and each dipeptide was tested at a concentration of 10^-6 g/ml.\nFollowing perfusion with the test or reference substance, the SMS sample/organ bath was perfused for 10 minutes with a Krebs-Henseleit solution containing 30 mM KCl and then perfused for an additional 10 minutes with a Krebs-Henseleit solution containing 20 mM CaCl2. Next, each SMS sample was washed with a calcium-free Krebs-Henseleit solution for 40 minutes. The effect of the test or reference substance on the SMS sample was evaluated by measuring the contractile response (i.e., the change in contraction amplitude) of the sample following the addition of the Krebs-Henseleit solution containing 20 mM CaCl2.\nNext, the organ bath was perfused for 10 minutes with a Krebs-Henseleit solution containing 30 mM KCl and then for additional 10 minutes with a Krebs-Henseleit solution containing 20 mM CaCl2. The effect of the respective test or reference substance was evaluated a second time by measuring the change in the contraction amplitude of the SMS following the addition of the Krebs-Henseleit solution containing 20 mM CaCl2. […]", "note": "Residues, ends and D or L forms follow the SMILES beside them."}
{"compound": "NCC(=O)N[C@@H](CCC(=O)O)C(=O)O", "note": "[GE, L-Glycyl-L-Glutamic acid] (H-Gly-Glu-OH)", "values": [{"measurement": "effect on calcium-induced intestinal smooth muscle tonic contraction", "setting": "10^-6 and 10^-5 g/ml", "value": "significantly reduced the amplitude"}, {"measurement": "Contraction Amplitude, calcium-induced (% of control level)", "setting": "Application I, 10^-6 g/ml", "value": 51.08, "unit": "%"}, {"measurement": "Contraction Amplitude, calcium-induced (% of control level)", "setting": "Application II, 10^-5 g/ml", "value": 33.14, "unit": "%"}]}
